From US20100267561A1, “HERBICIDAL PYRIDAZINONE DERIVATIVES” (priority 2007, published 2010)

What was measured:
Format in all cases: in vivo
[1] = tested on: downy bromegrass (Bromus tectorum); assay: Test C pre-/postemergence plant response; details: Preemergence
From the text: (§1) Seeds of plant species selected from annual bluegrass (Poa annua), blackgrass (Alopecurus myosuroides), canola (Brassica rapa), downy bromegrass (Bromus tectorum), green foxtail (Setaria viridis), Italian ryegrass (Lolium multiflorum), canarygrass (Phalaris minor), pigweed (Amaranthus retroflexus), spring barley (Hordeum vulgare), spring wheat (Triticum aestivum), wild mustard (Sinapis arvensis), wild oat (Avena fatua), windgrass (Apera spica-venti), winter barley (Hordeum vulgare), and winter wheat (Triticum aestivum) were planted and treated preemergence with test chemicals formulated in a non-phytotoxic solvent mixture which included a surfactant. At the same time, plants selected from these crop and weed species were treated with postemergence applications of some of the test chemicals formulated in the same manner. Plants ranged in height from 2 to 18 cm (1- to 4-leaf stage) for postemergence treatments.
(§2) Treated plants and controls were maintained in a controlled growth environment for 15 to 25 days after which time all species were compared to controls and visually evaluated. Plant response ratings, summarized in Table C, are based on a scale of 0 to 100 where 0 is no effect and 100 is complete control. A dash (-) response means no test result.

[2] = tested on: windgrass (Apera spica-venti); assay: Test C pre-/postemergence plant response; details: Preemergence
From the text: as §1, §2

[3] = tested on: wild oat (Avena fatua); assay: Test C pre-/postemergence plant response; details: Preemergence
From the text: as §1, §2

[4] = tested on: blackgrass (Alopecurus myosuroides); assay: Test C pre-/postemergence plant response; details: Preemergence
From the text: as §1, §2

[5] = tested on: winter wheat (Triticum aestivum); assay: Test C pre-/postemergence plant response; details: Preemergence
From the text: as §1, §2

[6] = tested on: canarygrass (Phalaris minor); assay: Test C pre-/postemergence plant response; details: Preemergence
From the text: as §1, §2

[7] = tested on: wild mustard (Sinapis arvensis); assay: Test C pre-/postemergence plant response; details: Preemergence
From the text: as §1, §2

[8] = tested on: green foxtail (Setaria viridis); assay: Test C pre-/postemergence plant response; details: Preemergence
From the text: as §1, §2

[9] = tested on: winter barley (Hordeum vulgare); assay: Test C pre-/postemergence plant response; details: Preemergence
From the text: as §1, §2

[10] = tested on: Italian ryegrass (Lolium multiflorum); assay: Test C pre-/postemergence plant response; details: Preemergence
From the text: as §1, §2

[11] = tested on: annual bluegrass (Poa annua); assay: Test C pre-/postemergence plant response; details: Preemergence
From the text: as §1, §2

[12] = tested on: spring barley (Hordeum vulgare); assay: Test C pre-/postemergence plant response; details: Preemergence
From the text: as §1, §2

[13] = tested on: giant foxtail (Setaria faberi); assay: Test A pre-/postemergence plant response
In short: (§3)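 Seeds sown in loam–sand blend; test chemicals in non-phytotoxic solvent with surfactant applied preemergence as directed soil spray and, concurrently, postemergence to plants 2–10 cm tall at one- to two-leaf stage. Greenhouse ~10 days, then visual injury rating vs untreated controls on 0–100 scale (0 = no effect, 100 = complete control).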

[14] = tested on: velvetleaf (Abutilon theophrasti); assay: Test A pre-/postemergence plant response
In short: as §3

[15] = tested on: large crabgrass (Digitaria sanguinalis); assay: Test A pre-/postemergence plant response
In short: as §3

[16] = 8 g ai/ha, scale 0 to 100 (0 no effect, 100 complete control)
[17] = 16 g ai/ha, scale 0 to 100 (0 no effect, 100 complete control)
[18] = 31 g ai/ha, scale 0 to 100 (0 no effect, 100 complete control)
[19] = 62 g ai/ha, scale 0 to 100, 0 no effect, 100 complete control
[20] = Postemergence, 31 g ai/ha, 0 to 100 scale, 0 no effect, 100 complete control
[21] = Postemergence, 125 g ai/ha, 0 to 100 scale, 0 no effect, 100 complete control
[22] = Preemergence, 31 g ai/ha, 0 to 100 scale, 0 is no effect, 100 is complete control
[23] = Preemergence, 125 g ai/ha, 0 to 100 scale (0 no effect, 100 complete control)

Structure (SMILES): Cc1cc(-c2ccc(Cl)cc2)nn1-c1c(OC(=O)c2cccc(Cl)c2)cnn(C)c1=O [Compound 32]
- Plant response rating, Bromegrass, Downy [1, 16]: 0
- Plant response rating, Bromegrass, Downy [1, 17]: 20
- Plant response rating, Bromegrass, Downy [1, 18]: 20
- Plant response rating, Bromegrass, Downy [1, 19]: 60
- Plant response rating, Windgrass [2, 16]: 0
- Plant response rating, Windgrass [2, 17]: 0
- Plant response rating, Windgrass [2, 18]: 0
- Plant response rating, Windgrass [2, 19]: 75
- Plant response rating, Oat, Wild [3, 16]: 0
- Plant response rating, Oat, Wild [3, 17]: 10
- Plant response rating, Oat, Wild [3, 18]: 65
- Plant response rating, Oat, Wild [3, 19]: 70
- Plant response rating, Blackgrass [4, 18]: 75
- Plant response rating, Blackgrass [4, 19]: 98
- Plant response rating, Wheat, Winter [5, 16]: 0
- Plant response rating, Wheat, Winter [5, 17]: 20
- Plant response rating, Wheat, Winter [5, 18]: 35
- Plant response rating, Wheat, Winter [5, 19]: 65
- Plant response rating, Canarygrass [6, 16]: 0
- Plant response rating, Canarygrass [6, 17]: 0
- Plant response rating, Canarygrass [6, 18]: 75
- Plant response rating, Canarygrass [6, 19]: 90
- Plant response rating, Mustard, Wild [7, 16]: 0
- Plant response rating, Mustard, Wild [7, 17]: 0
- Plant response rating, Mustard, Wild [7, 18]: 0
- Plant response rating, Foxtail, Green [8, 16]: 40
- Plant response rating, Foxtail, Green [8, 17]: 75
- Plant response rating, Foxtail, Green [8, 18]: 100
- Plant response rating, Foxtail, Green [8, 19]: 100
- Plant response rating, Barley, Winter [9, 16]: 0
- Plant response rating, Barley, Winter [9, 17]: 0
- Plant response rating, Barley, Winter [9, 18]: 20
- Plant response rating, Barley, Winter [9, 19]: 65
- Plant response rating, Ryegrass, Italian [10, 16]: 0
- Plant response rating, Ryegrass, Italian [10, 17]: 20
- Plant response rating, Ryegrass, Italian [10, 19]: 75
- Plant response rating, Bluegrass [11, 16]: 0
- Plant response rating, Bluegrass [11, 17]: 0
- Plant response rating, Bluegrass [11, 18]: 0
- Plant response rating, Bluegrass [11, 19]: 20
- Plant response rating, Barley, Spring [12, 16]: 0
- Plant response rating, Barley, Spring [12, 17]: 0
- Plant response rating, Barley, Spring [12, 18]: 25
- Plant response rating, Barley, Spring [12, 19]: 75
- Plant response rating, Foxtail, Giant [13, 20]: 10
- Plant response rating, Foxtail, Giant [13, 21]: 90
- Plant response rating, Foxtail, Giant [13, 22]: 90
- Plant response rating, Foxtail, Giant [13, 23]: 100
- Plant response rating, Velvetleaf [14, 20]: 0
- Plant response rating, Velvetleaf [14, 21]: 0
- Plant response rating, Velvetleaf [14, 22]: 0
- Plant response rating, Velvetleaf [14, 23]: 10
- Plant response rating, Crabgrass, Large [15, 20]: 10
- Plant response rating, Crabgrass, Large [15, 21]: 70
- Plant response rating, Crabgrass, Large [15, 22]: 90
- Plant response rating, Crabgrass, Large [15, 23]: 90

Structure (SMILES): Cc1cc(-c2ccc(Cl)cc2)nn1-c1c(OS(=O)(=O)c2ccccc2)cnn(C)c1=O [Compound 35]
- Plant response rating, Bromegrass, Downy [1, 16]: 0
- Plant response rating, Bromegrass, Downy [1, 17]: 0
- Plant response rating, Bromegrass, Downy [1, 18]: 50
- Plant response rating, Bromegrass, Downy [1, 19]: 60
- Plant response rating, Windgrass [2, 16]: 0
- Plant response rating, Windgrass [2, 18]: 15
- Plant response rating, Windgrass [2, 19]: 80
- Plant response rating, Oat, Wild [3, 16]: 0
- Plant response rating, Oat, Wild [3, 17]: 0
- Plant response rating, Oat, Wild [3, 18]: 30
- Plant response rating, Oat, Wild [3, 19]: 70
- Plant response rating, Blackgrass [4, 16]: 0
- Plant response rating, Blackgrass [4, 17]: 30
- Plant response rating, Blackgrass [4, 18]: 75
- Plant response rating, Blackgrass [4, 19]: 75
- Plant response rating, Wheat, Winter [5, 16]: 0
- Plant response rating, Wheat, Winter [5, 17]: 10
- Plant response rating, Wheat, Winter [5, 18]: 25
- Plant response rating, Wheat, Winter [5, 19]: 70
- Plant response rating, Canarygrass [6, 16]: 0
- Plant response rating, Canarygrass [6, 17]: 0
- Plant response rating, Canarygrass [6, 18]: 50
- Plant response rating, Canarygrass [6, 19]: 90
- Plant response rating, Mustard, Wild [7, 18]: 0
- Plant response rating, Mustard, Wild [7, 19]: 0
- Plant response rating, Foxtail, Green [8, 16]: 15
- Plant response rating, Foxtail, Green [8, 18]: 40
- Plant response rating, Foxtail, Green [8, 19]: 100
- Plant response rating, Barley, Winter [9, 16]: 0
- Plant response rating, Barley, Winter [9, 18]: 0
- Plant response rating, Barley, Winter [9, 19]: 50
- Plant response rating, Ryegrass, Italian [10, 16]: 0
- Plant response rating, Ryegrass, Italian [10, 17]: 35
- Plant response rating, Ryegrass, Italian [10, 18]: 98
- Plant response rating, Ryegrass, Italian [10, 19]: 100
- Plant response rating, Bluegrass [11, 16]: 0
- Plant response rating, Bluegrass [11, 17]: 0
- Plant response rating, Bluegrass [11, 18]: 0
- Plant response rating, Bluegrass [11, 19]: 0
- Plant response rating, Barley, Spring [12, 16]: 0
- Plant response rating, Barley, Spring [12, 17]: 0
- Plant response rating, Barley, Spring [12, 18]: 20
- Plant response rating, Barley, Spring [12, 19]: 65
- Plant response rating, Foxtail, Giant [13, 20]: 60
- Plant response rating, Foxtail, Giant [13, 21]: 90
- Plant response rating, Foxtail, Giant [13, 22]: 100
- Plant response rating, Foxtail, Giant [13, 23]: 100
- Plant response rating, Velvetleaf [14, 20]: 0
- Plant response rating, Velvetleaf [14, 21]: 0
- Plant response rating, Velvetleaf [14, 22]: 0
- Plant response rating, Velvetleaf [14, 23]: 0
- Plant response rating, Crabgrass, Large [15, 20]: 40
- Plant response rating, Crabgrass, Large [15, 21]: 90
- Plant response rating, Crabgrass, Large [15, 22]: 90
- Plant response rating, Crabgrass, Large [15, 23]: 100
